Experimental data published in patent US20110039721A1, “METHOD FOR PREDICTION ABOUT CARCINOGENICITY OF SUBSTANCE IN RODENT” (Chemicals Evaluation and Research Institute, priority 2007, published 2011).

How the values were obtained:
[1] = system: mRNA expressed from the genes (A) to (D) in rat liver; assay: Behavior of genes (mRNA expression level, oligo-DNA microarray) in rat liver after 28-day oral administration; type: in vivo; conditions: mRNA vs vehicle control group
Method in brief: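 Rat liver RNA after 28 days of daily gavage dosing (male F344, 5 weeks old, four per group). A change reaching 1.5-fold, or 1/1.5, against solvent control scores as significant; opposite direction versus another carcinogen scores as not significant.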

liver = conditions: classification of the substance (Cr+/Cr−); cited from earlier work
rodent = conditions: classification of the substance (C+/C−); cited from earlier work
[2] = gene group (A), Unigene No. Rn.167075
[3] = gene group (C), Unigene No. Rn.120914

CCCCC(CC)COC(=O)CCCCC(=O)OCC(CC)CCCC (centres unmarked) [TS018, Di(2-ethylhexyl)adipate]
Behavior of gene caused by administration of chemical substance, Gene No. 4846 ([1]; gene group (A), Unigene No. Rn.144554): − | Behavior of gene caused by administration of chemical substance, Gene No. 2026 [1, 2]: − | Behavior of gene caused by administration of chemical substance, Gene No. 4218 [1, 2]: − | Behavior of gene caused by administration of chemical substance, Gene No. 6182 ([1]; gene group (A), Unigene No. Rn.5834): + | Behavior of gene caused by administration of chemical substance, Gene No. 5600 ([1]; gene group (A), Unigene No. Rn.9836): − | Behavior of gene caused by administration of chemical substance, Gene No. 1494 ([1]; gene group (B), Unigene No. Rn.1430): + | Behavior of gene caused by administration of chemical substance, Gene No. 2045 ([1]; gene group (B), Unigene No. Rn.19329): + | Behavior of gene caused by administration of chemical substance, Gene No. 2203 ([1]; gene group (B), Unigene No. Rn.21240): + | Behavior of gene caused by administration of chemical substance, Gene No. 533 ([1]; gene group (C), Unigene No. Rn.106184): + | Behavior of gene caused by administration of chemical substance, Gene No. 725 ([1]; gene group (C), Unigene No. Rn.108075): − | Behavior of gene caused by administration of chemical substance, Gene No. 1163 ([1]; gene group (C), Unigene No. Rn.11766): − | Behavior of gene caused by administration of chemical substance, Gene No. 4973 ([1]; gene group (C), Unigene No. Rn.118529): + | Behavior of gene caused by administration of chemical substance, Gene No. 4095 ([1]; gene group (C), Unigene No. Rn.119024): + | Behavior of gene caused by administration of chemical substance, Gene No. 1334 [1, 3]: − | Behavior of gene caused by administration of chemical substance, Gene No. 6620 [1, 3]: − | Behavior of gene caused by administration of chemical substance, Gene No. 6303 ([1]; gene group (C), Unigene No. Rn.123063): − | Behavior of gene caused by administration of chemical substance, Gene No. 5878 ([1]; gene group (C), Unigene No. Rn.143213): − | Behavior of gene caused by administration of chemical substance, Gene No. 1131 ([1]; gene group (C), Unigene No. Rn.144946): − | Behavior of gene caused by administration of chemical substance, Gene No. 1562 ([1]; gene group (C), Unigene No. Rn.14744): − | Behavior of gene caused by administration of chemical substance, Gene No. 1741 ([1]; gene group (C), Unigene No. Rn.1647): − | Behavior of gene caused by administration of chemical substance, Gene No. 893 ([1]; gene group (C), Unigene No. Rn.164817): − | Behavior of gene caused by administration of chemical substance, Gene No. 6026 ([1]; gene group (C), Unigene No. Rn.167685): − | Behavior of gene caused by administration of chemical substance, Gene No. 154 ([1]; gene group (C), Unigene No. Rn.185941): − | Behavior of gene caused by administration of chemical substance, Gene No. 1993 ([1]; gene group (C), Unigene No. Rn.18728): − | Behavior of gene caused by administration of chemical substance, Gene No. 813 ([1]; gene group (C), Unigene No. Rn.201760): − | Behavior of gene caused by administration of chemical substance, Gene No. 2494 ([1]; gene group (C), Unigene No. Rn.23969): − | Behavior of gene caused by administration of chemical substance, Gene No. 2546 ([1]; gene group (C), Unigene No. Rn.24561): − | Behavior of gene caused by administration of chemical substance, Gene No. 3776 ([1]; gene group (C), Unigene No. Rn.43232): − | Behavior of gene caused by administration of chemical substance, Gene No. 3929 ([1]; gene group (C), Unigene No. Rn.4620): − | Behavior of gene caused by administration of chemical substance, Gene No. 1119 ([1]; gene group (C), Unigene No. Rn.9757): − | Behavior of gene caused by administration of chemical substance, Gene No. 6742 ([1]; gene group (C), Unigene No. Rn.9779): − | Behavior of gene caused by administration of chemical substance, Gene No. 5634 ([1]; gene group (C), Unigene No. Rn.9862): − | Behavior of gene caused by administration of chemical substance, Gene No. 5726 ([1]; gene group (D), Unigene No. Rn.9939): − | Liver carcinogenicity (liver): Cr− | Carcinogenicity (rodent): C+
